# From the kinase profiling compilation of Christmann-Franck et al. (2016)
# Where “and” joins values, the source holds several entries; their conditions need not be identical. Identical values can stand only once.
# How the values were obtained:
# Experiment in all cases: radiometric filter-binding kinase assay, Kinase HotSpot
# Details in all cases: compound 0.5 µM; ATP 10 µM
# [1] = molecular target: MAP3K8 (human) (UniProt P41279)
# [2] = molecular target: GRK4 (human) (UniProt P32298)
# [3] = molecular target: GSK3B (human) (UniProt P49841)
# [4] = molecular target: PLK1 (human) (UniProt P53350)
# [5] = molecular target: EPHA5 (human) (UniProt P54756)
# [6] = molecular target: PKN1 (human) (UniProt Q16512)
# [7] = molecular target: CDK6 CCND3 (human) (UniProt P30281+Q00534)
# [8] = molecular target: STK10 (human) (UniProt O94804)
# [9] = molecular target: MAPK12 (human) (UniProt P53778)
# [10] = molecular target: LYN (human) (UniProt P07948)
# [11] = molecular target: NEK3 (human) (UniProt P51956)
# [12] = molecular target: BTK (human) (UniProt Q06187)
# [13] = molecular target: FER (human) (UniProt P16591)
# [14] = molecular target: JAK3 JH1 JH2 (human) (UniProt P52333)
# [15] = molecular target: AURKA (human) (UniProt O14965)
# [16] = molecular target: FGFR4 (human) (UniProt P22455)
# [17] = molecular target: DYRK2 (human) (UniProt Q92630)
# [18] = molecular target: TYRO3 (human) (UniProt Q06418)
# [19] = molecular target: DMPK (human) (UniProt Q09013)
# [20] = molecular target: CSNK2A1 (human) (UniProt P68400)
# [21] = molecular target: GRK7 (human) (UniProt Q8WTQ7)
# [22] = molecular target: FGFR2 (human) (UniProt P21802)
# [23] = molecular target: SGK2 (human) (UniProt Q9HBY8)
# [24] = molecular target: PNCK (human) (UniProt Q6P2M8)
# [25] = molecular target: IRAK4 (human) (UniProt Q9NWZ3)
# [26] = molecular target: RPS6KA4 KD2 (human) (UniProt O75676)
# [27] = molecular target: HIPK1 (human) (UniProt Q86Z02)
# [28] = molecular target: DAPK3 (human) (UniProt O43293)
# [29] = molecular target: TLK2 (human) (UniProt Q86UE8)
# [30] = molecular target: MYLK (human) (UniProt Q15746)
# [31] = molecular target: RPS6KA2 KD1 KD2 (human) (UniProt Q15349)
# [32] = molecular target: MST1R (human) (UniProt Q04912)
# [33] = molecular target: CHEK2 (human) (UniProt O96017)
# [34] = molecular target: STK3 (human) (UniProt Q13188)
# [35] = molecular target: CSK (human) (UniProt P41240)
# [36] = molecular target: PRKG1 (human) (UniProt Q13976)
# [37] = molecular target: ULK3 (human) (UniProt Q6PHR2)
# [38] = molecular target: BMX (human) (UniProt P51813)
# [39] = molecular target: MARK2 (human) (UniProt Q7KZI7)
# [40] = molecular target: MLTK (human) (UniProt Q9NYL2)
# [41] = molecular target: SRC (human) (UniProt P12931)
# [42] = molecular target: EPHB4 (human) (UniProt P54760)
# BTK (human), sequence (Q06187 whole entry, looked up): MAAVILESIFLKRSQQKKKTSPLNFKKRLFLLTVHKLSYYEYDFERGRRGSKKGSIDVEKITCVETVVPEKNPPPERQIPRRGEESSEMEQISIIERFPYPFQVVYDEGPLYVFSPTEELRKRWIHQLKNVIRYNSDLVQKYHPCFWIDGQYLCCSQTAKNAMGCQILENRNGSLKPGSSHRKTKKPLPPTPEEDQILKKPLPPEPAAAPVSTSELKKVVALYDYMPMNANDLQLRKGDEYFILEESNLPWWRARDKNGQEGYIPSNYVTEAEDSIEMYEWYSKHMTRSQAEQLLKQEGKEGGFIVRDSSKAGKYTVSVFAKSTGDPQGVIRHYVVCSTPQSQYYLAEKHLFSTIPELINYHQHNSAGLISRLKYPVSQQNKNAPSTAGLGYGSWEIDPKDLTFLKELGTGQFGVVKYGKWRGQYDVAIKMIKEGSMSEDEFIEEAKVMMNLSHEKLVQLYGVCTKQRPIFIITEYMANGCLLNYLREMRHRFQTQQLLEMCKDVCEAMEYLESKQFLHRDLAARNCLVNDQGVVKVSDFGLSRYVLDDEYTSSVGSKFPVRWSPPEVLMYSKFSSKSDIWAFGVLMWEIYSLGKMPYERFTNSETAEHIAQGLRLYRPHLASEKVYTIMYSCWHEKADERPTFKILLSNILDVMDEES
# PLK1 (human), sequence (P53350 whole entry, looked up): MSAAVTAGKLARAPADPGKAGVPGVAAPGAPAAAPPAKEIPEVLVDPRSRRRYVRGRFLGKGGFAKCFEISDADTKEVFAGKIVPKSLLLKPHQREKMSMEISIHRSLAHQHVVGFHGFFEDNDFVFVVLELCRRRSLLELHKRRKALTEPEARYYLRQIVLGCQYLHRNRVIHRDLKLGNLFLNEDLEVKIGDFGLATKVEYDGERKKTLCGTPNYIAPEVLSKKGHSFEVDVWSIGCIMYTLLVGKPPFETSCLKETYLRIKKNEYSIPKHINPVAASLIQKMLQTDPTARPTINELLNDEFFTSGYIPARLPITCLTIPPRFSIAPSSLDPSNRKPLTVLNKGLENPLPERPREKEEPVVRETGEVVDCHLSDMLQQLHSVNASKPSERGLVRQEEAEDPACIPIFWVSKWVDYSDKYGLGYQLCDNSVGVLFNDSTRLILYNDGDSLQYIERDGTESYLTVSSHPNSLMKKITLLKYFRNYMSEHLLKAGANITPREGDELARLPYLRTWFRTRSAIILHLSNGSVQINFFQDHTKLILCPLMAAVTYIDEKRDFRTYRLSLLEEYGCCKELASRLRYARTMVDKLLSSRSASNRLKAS
# RPS6KA2 KD1 KD2 (human), sequence (Q15349 whole entry, looked up): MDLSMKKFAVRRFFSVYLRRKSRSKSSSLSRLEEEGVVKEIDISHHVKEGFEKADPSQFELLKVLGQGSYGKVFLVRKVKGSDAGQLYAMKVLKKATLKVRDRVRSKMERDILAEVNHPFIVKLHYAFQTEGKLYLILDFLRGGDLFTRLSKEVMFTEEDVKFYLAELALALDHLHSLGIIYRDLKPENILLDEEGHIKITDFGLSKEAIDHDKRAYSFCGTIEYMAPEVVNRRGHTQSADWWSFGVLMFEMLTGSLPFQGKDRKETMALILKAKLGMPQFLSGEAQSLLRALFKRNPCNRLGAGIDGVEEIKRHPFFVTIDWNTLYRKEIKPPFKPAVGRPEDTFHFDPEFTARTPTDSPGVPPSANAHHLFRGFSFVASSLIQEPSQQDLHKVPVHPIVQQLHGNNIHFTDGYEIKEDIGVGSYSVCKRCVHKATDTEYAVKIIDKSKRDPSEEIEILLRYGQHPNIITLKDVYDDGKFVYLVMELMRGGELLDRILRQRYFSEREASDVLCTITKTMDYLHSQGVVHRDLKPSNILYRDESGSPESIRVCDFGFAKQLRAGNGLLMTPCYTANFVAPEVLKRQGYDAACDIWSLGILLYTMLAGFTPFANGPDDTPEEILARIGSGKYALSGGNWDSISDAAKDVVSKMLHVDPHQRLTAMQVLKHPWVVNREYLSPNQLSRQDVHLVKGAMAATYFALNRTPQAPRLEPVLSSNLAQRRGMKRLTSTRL
# PRKG1 (human), sequence (Q13976 whole entry, looked up): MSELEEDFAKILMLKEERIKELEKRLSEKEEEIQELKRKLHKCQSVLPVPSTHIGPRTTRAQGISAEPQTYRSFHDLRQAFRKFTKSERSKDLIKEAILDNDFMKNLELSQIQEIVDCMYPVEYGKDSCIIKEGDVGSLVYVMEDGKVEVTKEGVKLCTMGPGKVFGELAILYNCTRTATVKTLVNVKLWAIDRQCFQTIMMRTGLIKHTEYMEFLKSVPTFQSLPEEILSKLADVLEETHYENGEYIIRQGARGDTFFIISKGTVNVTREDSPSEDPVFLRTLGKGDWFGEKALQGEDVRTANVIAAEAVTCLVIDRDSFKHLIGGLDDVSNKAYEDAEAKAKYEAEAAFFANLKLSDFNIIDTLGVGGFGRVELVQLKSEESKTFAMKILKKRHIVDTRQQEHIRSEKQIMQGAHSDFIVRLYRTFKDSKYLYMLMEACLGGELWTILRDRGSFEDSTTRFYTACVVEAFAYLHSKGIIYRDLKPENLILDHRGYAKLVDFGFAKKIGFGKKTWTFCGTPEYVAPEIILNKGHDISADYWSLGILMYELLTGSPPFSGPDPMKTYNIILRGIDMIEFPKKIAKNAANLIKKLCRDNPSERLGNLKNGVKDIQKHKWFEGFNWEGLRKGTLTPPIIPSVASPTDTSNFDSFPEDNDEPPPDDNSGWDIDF
# PKN1 (human), sequence (Q16512 whole entry, looked up): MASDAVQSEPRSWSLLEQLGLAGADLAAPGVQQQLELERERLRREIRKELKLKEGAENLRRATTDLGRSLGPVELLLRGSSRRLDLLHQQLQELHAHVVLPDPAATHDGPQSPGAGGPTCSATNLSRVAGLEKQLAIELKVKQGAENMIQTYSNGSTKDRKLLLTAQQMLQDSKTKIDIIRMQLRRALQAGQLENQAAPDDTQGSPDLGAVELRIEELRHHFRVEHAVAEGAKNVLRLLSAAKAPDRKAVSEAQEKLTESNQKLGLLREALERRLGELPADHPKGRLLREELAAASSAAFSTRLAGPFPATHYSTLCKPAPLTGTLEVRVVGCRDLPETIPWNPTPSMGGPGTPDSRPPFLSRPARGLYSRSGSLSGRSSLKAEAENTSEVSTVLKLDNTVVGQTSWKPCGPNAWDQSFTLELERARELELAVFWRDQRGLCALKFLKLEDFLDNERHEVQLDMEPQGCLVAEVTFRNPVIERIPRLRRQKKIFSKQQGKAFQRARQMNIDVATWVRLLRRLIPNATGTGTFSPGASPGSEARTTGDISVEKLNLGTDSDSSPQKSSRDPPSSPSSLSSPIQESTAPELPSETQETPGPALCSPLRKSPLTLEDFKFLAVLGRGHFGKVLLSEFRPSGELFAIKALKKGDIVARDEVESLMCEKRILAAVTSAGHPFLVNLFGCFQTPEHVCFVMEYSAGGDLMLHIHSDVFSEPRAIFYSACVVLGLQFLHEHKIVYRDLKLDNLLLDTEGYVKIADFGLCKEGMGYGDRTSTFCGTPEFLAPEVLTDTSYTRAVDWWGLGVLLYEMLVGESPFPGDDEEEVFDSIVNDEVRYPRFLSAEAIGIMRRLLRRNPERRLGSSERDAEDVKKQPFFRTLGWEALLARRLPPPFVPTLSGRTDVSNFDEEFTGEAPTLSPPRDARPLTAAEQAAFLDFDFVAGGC
# JAK3 JH1 JH2 (human), sequence (P52333 whole entry, looked up): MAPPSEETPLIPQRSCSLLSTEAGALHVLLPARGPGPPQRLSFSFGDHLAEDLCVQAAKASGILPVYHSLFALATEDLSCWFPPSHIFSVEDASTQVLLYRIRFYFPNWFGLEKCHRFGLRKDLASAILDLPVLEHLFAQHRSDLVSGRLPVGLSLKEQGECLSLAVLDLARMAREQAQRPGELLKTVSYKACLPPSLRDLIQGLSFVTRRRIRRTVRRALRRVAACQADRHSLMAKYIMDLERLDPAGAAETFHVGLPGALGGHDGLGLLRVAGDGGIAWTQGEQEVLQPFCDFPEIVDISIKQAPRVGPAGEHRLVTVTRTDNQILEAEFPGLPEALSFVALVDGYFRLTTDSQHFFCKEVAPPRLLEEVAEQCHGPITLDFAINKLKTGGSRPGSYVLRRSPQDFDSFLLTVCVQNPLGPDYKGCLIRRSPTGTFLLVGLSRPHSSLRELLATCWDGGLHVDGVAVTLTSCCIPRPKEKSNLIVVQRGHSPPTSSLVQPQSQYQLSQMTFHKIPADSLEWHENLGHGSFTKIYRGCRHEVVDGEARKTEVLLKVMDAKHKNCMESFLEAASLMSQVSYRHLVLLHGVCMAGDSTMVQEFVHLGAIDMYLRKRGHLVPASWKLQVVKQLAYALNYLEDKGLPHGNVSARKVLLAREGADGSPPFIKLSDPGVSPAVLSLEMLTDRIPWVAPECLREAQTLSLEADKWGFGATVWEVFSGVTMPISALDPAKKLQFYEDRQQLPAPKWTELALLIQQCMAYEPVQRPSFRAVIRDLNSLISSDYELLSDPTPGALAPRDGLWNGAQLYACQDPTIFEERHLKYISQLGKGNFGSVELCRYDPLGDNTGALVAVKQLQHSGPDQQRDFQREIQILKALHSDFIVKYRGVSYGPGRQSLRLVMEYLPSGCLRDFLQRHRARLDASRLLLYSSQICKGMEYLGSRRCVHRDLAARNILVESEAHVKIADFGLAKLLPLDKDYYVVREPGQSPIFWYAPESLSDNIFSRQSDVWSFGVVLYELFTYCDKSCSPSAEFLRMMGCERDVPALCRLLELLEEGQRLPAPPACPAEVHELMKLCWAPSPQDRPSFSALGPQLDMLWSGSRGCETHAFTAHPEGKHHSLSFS
# PNCK (human), sequence (Q6P2M8 whole entry, looked up): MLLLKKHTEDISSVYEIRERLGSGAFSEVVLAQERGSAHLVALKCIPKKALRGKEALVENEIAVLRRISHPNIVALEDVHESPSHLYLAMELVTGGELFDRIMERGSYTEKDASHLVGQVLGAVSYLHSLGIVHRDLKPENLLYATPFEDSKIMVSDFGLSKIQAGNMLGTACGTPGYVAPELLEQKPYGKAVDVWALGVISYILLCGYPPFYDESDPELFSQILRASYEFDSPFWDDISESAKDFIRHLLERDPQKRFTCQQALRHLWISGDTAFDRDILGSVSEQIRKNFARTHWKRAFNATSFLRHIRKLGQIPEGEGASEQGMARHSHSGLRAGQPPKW
Structure (SMILES),residual activity [1],residual activity [2],residual activity [3],residual activity [4],residual activity [5],residual activity [6],residual activity [7],residual activity [8],residual activity [9],residual activity [10],residual activity [11],residual activity [12],residual activity [13],residual activity [14],residual activity [15],residual activity [16],residual activity [17],residual activity [18],residual activity [19],residual activity [20],further results
CCN(CC)CCNC(=O)c1c(C)[nH]c(/C=C2\C(=O)Nc3ccc(F)cc32)c1C,117%,75.8%,95.8%,96.4%,87.6%,71.4%,59.7%,31.2%,95.8%,23% and 34.6%,91.6%,50.2%,31.6%,80.7%,59.7%,92.5%,82.6%,28.3%,97.7%,121%,residual activity [21]: 71.3%; residual activity [22]: 50.5%; residual activity [23]: 93.1%; residual activity [24]: 98.5%; residual activity [25]: 27.4%; residual activity [26]: 50.8%; residual activity [27]: 71.3%; residual activity [28]: 74.2%; residual activity [29]: 63.3%; residual activity [30]: 25.6%; residual activity [31]: 17.3%; residual activity [32]: 92%; residual activity [33]: 7.13%; residual activity [34]: 24.8%; residual activity [35]: 90.2%; residual activity [36]: 65.3% and 88.8%; residual activity [37]: 57.4%; residual activity [38]: 99%
Cc1ccc(S(=O)(=O)/C=C/C#N)cc1,96.2%,96.8%,109%,110%,111%,92.1%,104%,90.6%,90.5%,101% and 108%,108%,94.4%,104%,101%,111%,94.3%,102%,99.8%,89%,94.3%,residual activity [39]: 84%; residual activity [40]: 94.7%; residual activity [41]: 102%; residual activity [21]: 92.6%; residual activity [22]: 102%; residual activity [23]: 112%; residual activity [24]: 107%; residual activity [25]: 161%; residual activity [26]: 82.8%; residual activity [27]: 105%; residual activity [28]: 97.4%; residual activity [30]: 93.9%; residual activity [31]: 100%; residual activity [32]: 113%; residual activity [33]: 107%; residual activity [34]: 93.6%; residual activity [35]: 97.2%; residual activity [36]: 95.8% and 96.7%; residual activity [42]: 102%; residual activity [38]: 105%
CC(=O)c1ccc(N2CCOCC2)cc1O,99.4%,106%,122%,94.3%,109%,108%,97.4%,101%,78.7%,106% and 98.8%,103%,108%,90.4%,104%,132%,108%,101%,89.1%,105%,101%,residual activity [39]: 107%; residual activity [40]: 97.8%; residual activity [41]: 104%; residual activity [21]: 100%; residual activity [22]: 108%; residual activity [23]: 101%; residual activity [24]: 103%; residual activity [25]: 120%; residual activity [26]: 103%; residual activity [27]: 93.9%; residual activity [28]: 98.1%; residual activity [30]: 91.1%; residual activity [31]: 98.6%; residual activity [32]: 104%; residual activity [33]: 104%; residual activity [34]: 98.9%; residual activity [35]: 99.1%; residual activity [36]: 100% and 84.1%; residual activity [42]: 97.6%; residual activity [38]: 90.6%
